Data set [1] concerns male ddY mice. The experiment in a line: Murine 6 Hz convulsion models (6 Hz, 44 mA corneal stimulation). In kind it is in vivo. As to conditions: for ED50: Mus musculus, 25 min; for Therapeutic Index: TD50/ED50 (rotarod test-1 / 6 Hz convulsion model). The protocol: (§1) With regard to the AMPA receptor inhibitory action of the compounds, AMPA-induced intraneuronal calcium entry-suppressing action was examined using a primary culture system of embryonic rat cerebral cortex neurons. […] AMPA inhibitor-induced central nervous system depressant action such as loss of coordination was evaluated using a rotarod performance test.
Immediately after the rotarod performance test-1 was completed, the cornea was stimulated by passing an electrical current (6 Hz, 44 mA, 0.2-millisecond pulse, for 3 seconds) from a copper electrode moistened with physiological saline, and the presence or absence of the development of a seizure was observed. The seizure was determined by the development of akinesia, jaw and forelimb clonus, whisker tremors, and Straub tail.
Further, for the purpose of evaluating the safety margin of each of the compounds of the present invention, the therapeutic index (TD50/ED50) was calculated by comparing the seizure inhibitory action (ED50) in the 6 Hz convulsion models and the neurotoxic action (TD50) in the rotarod performance test-1.
In general terms: Falling from the rotarod earlier than controls is read as motor impairment.

The test system of data set [2] is male ddY mice. In words: Rotarod performance test-1. In kind it is in vivo. As to conditions: oral, 25 minutes after administration, dose at which time of fall is reduced to 50% of medium control. The protocol:
as §1
Rotarod Performance Test-1
(§2) A rotarod (MK-660C from Muromachi Kikai Co., Ltd.) was used for the measurement. The rod (bar) was controlled to be gradually accelerated from its stationary state to a speed of 40 rotations/minute after 180 seconds. As the animals, 5 or 6-week-old male ddY mice (Japan SLC, Inc.) were used. On the day on which the test was performed, the mice were trained under the above-described measurement conditions, and mice that were able to ride on the rod for 1 minute or longer with good reproducibility were selected and subjected to the test.
Each of the compounds was dissolved in a medium (a solution prepared by adding DMSO to a 0.5% methylcellulose solution to a final concentration of 10%. As required, 0.5 to 5% of 1 mol/L hydrochloric acid and 5% Cremophor™ were added), and then orally administered to the mice in optimum four doses between 0.5 to 10 mg/kg. As the control, only the medium was orally administered. After a lapse of 25 minutes from the oral administration of each compound, the mice were subjected to the rotarod performance test. Five to twenty-five mice were used for each compound group.

Data set [3] has as its system AMPA receptor. In words: AMPA-induced intraneuronal calcium entry-suppressing action (primary culture of embryonic rat cerebral cortex neurons, Fura 2-AM). The conditions noted are these: AMPA stimulation, intracellular calcium increase, read-out: IC50 for AMPA inhibition. In kind it is cell-based. An excerpt:
The present inventors conducted the following tests, in order to confirm the effects of the compounds of the present invention. With regard to the AMPA receptor inhibitory action of the compounds, AMPA-induced intraneuronal calcium entry-suppressing action was examined using a primary culture system of embryonic rat cerebral cortex neurons. With regard to the anticonvulsant action of the compounds, 6 Hz (44 mA) stimulation-induced convulsions known as a treatment-resistant convulsion model were used. AMPA inhibitor-induced central nervous system depressant action such as loss of coordination was evaluated using a rotarod performance test.
AMPA-Induced Intraneuronal Calcium Entry-Suppressing Action
<Culture conditions> Whole fetuses were removed from the uteri of Wistar rats at embryonic day 18 (Charles River Japan) anesthetized with isoflurane. Whole brains were removed from the whole fetuses, and the cerebral cortex was separated in Leibovitz's L-15 medium or Hanks balanced salt solution containing 20% fetal bovine serum. The resulting material was treated with trypsin/DNase solution at 37° C. for 45 to 60 minutes. After the serum was added to stop the trypsin reaction, the resulting material was centrifuged at 1200 to 1500 rpm for 3 to 5 minutes. After the supernatant was removed, Neurobasal medium (containing 2% B-27 supplement and the like; hereinafter “Neurobasal medium”) was added, and the cells were uniformly dispersed by gently pipetting. The cell suspension was slightly stirred, and then filtered through a nylon mesh filter. Viable cells were counted using a hemocytometer, and diluted with Neurobasal medium to 8 to 10×10^5 cells/mL. The cells were seeded into 96 well plates at 100 μL per well and cultured in a CO2 incubator (5% CO2, 37° C.). The medium was replaced after 24 hours, and neurons cultured for 7 to 21 days were used.
On the day of the assay, the medium was removed and replaced with a calcium measurement solution containing 5 to 10 μmol/L of Fura 2-AM (140 mmol/L sodium chloride, 5 mmol/L potassium chloride, 2 mmol/L magnesium chloride, 3 mmol/L calcium chloride, 24 mmol/L D(+)-glucose, 10 mmol/L HEPES, 1 μmol/L MK-801, pH 7.4), and the cells were treated in a CO2 incubator (5% CO2, 37° C.) for 1 to 2 hours. The calcium measurement solution containing the Fura-2 AM solution was subsequently removed, and the neurons in each well were washed twice with the calcium measurement solution for each well, and then 50 μL of the calcium measurement solution was added to each well. Subsequently, 50 μL of a test compound or medium prepared at a concentration 3-fold higher than the final concentration was added, and the cells were pre-treated for about 15 minutes. The plates were subsequently placed on the Fluorescence Drug Screening System 6000 (Hamamatsu Photonics K.K.). The cells were stimulated by adding to each well 50 μL of an AMPA stimulating solution prepared to 3.3 μmol/L with the calcium measurement solution. Changes in calcium concentration were measured as the changes in fluorescence intensity at excitation wavelengths of 340 nm and 380 nm (measurement wavelength: 540 nm). The rate of change of the intracellular calcium concentration was calculated according to the following equation: Rate of increase of the intracellular calcium concentration (% control)=(Tpost−Tpre)/(Cpost−Cpre)×100
wherein Tpost: the proportion of fluorescence of sample wells after stimulation; Tpro: the proportion of fluorescence of sample wells before stimulation; Cpost: the proportion of fluorescence of control wells after stimulation; and Cpre: the proportion of fluorescence of control wells before stimulation.
The IC50 value of the test compound for AMPA inhibition was determined from the rates of increase of the intracellular calcium concentration at various concentrations.

The subject of data set [4] is male ddY mice. In words: Rotarod performance test-2. Type of data set: in vivo. The conditions noted are these: Table 4; for Time of Fall: mice, oral at the ED50 dose of the 6 Hz model, 25 minutes after administration; for Ratio Relative to the Control Compound: time of fall relative to control compound. The protocol:
Rotarod Performance Test-2
as §2
As the control, only the medium was orally administered. After a lapse of 25 minutes from the oral administration of each compound, the mice were subjected to the rotarod performance test. Five or six mice were used for each compound group. For each compound, the time until the mice fell from the rotarod was measured.

Where two headings read alike, the source gives them in different places.

The source of these data is US9738656B2, “Pyranodipyridine compound” (Eisai R&D Management Co., Ltd., priority 2015, dated 2017).

On to `N#Cc1c(F)cccc1-c1cc2c(n(-c3cccnc3)c1=O)COc1cc(F)cnc1-2` [Example 14, 2-fluoro-6-(3-fluoro-8-oxo-7-(pyridin-3-yl)-7,8-dihydro-6H-pyrano[3,2-b:5,4-b′]dipyridin-9-yl)benzonitrile], for which the ED50 (in general, the dose at which the effect has come halfway, by size or by number of responders) in data set [1] (po) is 2.09 mg/kg. Moreover, in data set [1] (mice), the “Therapeutic Index” value is listed as 2.27. The TD50 in data set [2] is recorded as 4.76 mg/kg, p.o. Also, the IC50 (in general, the concentration that inhibits the measured activity by half) in data set [3] turned out to be 19.4 nM. For the same compound, in data set [4], the “Time of Fall” value worked out at 139.2 s and the “Ratio Relative to the Control Compound” value turned out to be 9.7.
As for `Cc1ncc(-n2c3c(cc(-c4cccc(F)c4C#N)c2=O)-c2ncccc2OC3)cn1` [Example 21, 2-fluoro-6-(7-(2-methylpyrimidin-5-yl)-8-oxo-7,8-dihydro-6H-pyrano[3,2-b:5,4-b′]dipyridin-9-yl)benzonitrile], the ED50 in data set [1] (mice, 6 Hz 44 mA stimulation-induced seizure, oral, after rotarod test-1 (25 minutes after administration), read-out: ED50) came to 2.5 mg/kg. Also, the “Therapeutic Index” value in data set [1] (mice) is 2.12. The TD50 in data set [2] is reported as 5.30 mg/kg, p.o. For the same compound, the half-inhibitory concentration (IC50) in data set [3] was 44.3 nM. Moreover, in data set [4], the “Time of Fall” value was 118.7 s and the “Ratio Relative to the Control Compound” value stood at 8.3.
